Each structure is given as a SMILES string.

Data on 36 compounds can be found in patent US7928098B2, “Therapeutic and/or preventive agents for a sleep disorder” (Kyowa Hakko Kirin Co., Ltd., priority 2005, dated 2011).

For `COCC(=O)c1sc(NC(=O)c2ccc(F)cc2)nc1-c1ccco1` [Compound 311, 4-Fluoro-N-[4-(2-furyl)-5-(methoxyacetyl)thiazol-2-yl]benzamide], the melting point is 166 to 167 °C.
To `Cc1cnc(C(=O)Nc2nc(-c3ccco3)c(C(=O)c3ccccn3)s2)cn1` [Compound 138, N-[4-(2-Furyl)-5-(pyridin-2-ylcarbonyl)thiazol-2-yl]-5-methylpyrazine-2-carboxamide] belongs 208 to 209 °C.
`O=C(Nc1nc(-c2ccco2)c(C(=O)C2CCOCC2)s1)c1cc(F)ccc1F` [Compound 396, 2,5-Difluoro-N-[4-(2-furyl)-5-(tetrahydropyran-4-ylcarbonyl)thiazol-2-yl]benzamide] registered a melting point of 172 to 174 °C.
In the case of `CCC(=O)c1sc(NC(=O)c2ccncc2)nc1-c1ccco1` [Compound 288, N-[4-(2-Furyl)-5-propionylthiazol-2-yl]pyridine-4-carboxamide], the melting point is 225 to 240 °C (dec.).
To `Cn1cc(-c2sc(NC(=O)c3ccncc3)nc2-c2ccco2)ccc1=O` [Compound 38, N-[4-(2-Furyl)-5-(1-methyl-2-oxo-1,2-dihydropyridin-5-yl)thiazol-2-yl]pyridine-4-carboxamide] belongs 294 to 295 °C; to `Cc1cccc(C(=O)Nc2nc(-c3ccco3)c(C(=O)C3CCOCC3)s2)c1` [Compound 364, N-[4-(2-Furyl)-5-(tetrahydropyran-4-ylcarbonyl)thiazol-2-yl]-3-methylbenzamide], 197 to 201 °C; to `O=C(Nc1nc(-c2ccco2)c(C(=O)C2CCOCC2)s1)c1cccc2c1OCCO2` [Compound 400, N-[4-(2-Furyl)-5-(tetrahydropyran-4-ylcarbonyl)thiazol-2-yl]-1,4-benzodioxane-5-carboxamide], 188 to 190 °C.
To `O=C(Nc1nc(-c2ccco2)c(C(=O)C2CCC2)s1)c1ccncc1` [Compound 330, N-[5-(Cyclobutylcarbonyl)-4-(2-furyl)thiazol-2-yl]pyridine-4-carboxamide] belongs 227 to 235 °C (dec.); to `O=C(Nc1nc(-c2ccco2)c(C(=O)C2CCOCC2)s1)c1ccc(OC(F)(F)F)cc1` [Compound 382, N-[4-(2-Furyl)-5-(tetrahydropyran-4-ylcarbonyl)thiazol-2-yl]-4-(trifluoromethoxy)benzamide], 177 to 180 °C.
The compound `COc1cc(OC)cc(C(=O)Nc2nc(-c3ccco3)c(C(=O)C3CCOCC3)s2)c1` [Compound 393, N-[4-(2-Furyl)-5-(tetrahydropyran-4-ylcarbonyl)thiazol-2-yl]-3,5-dimethoxybenzamide] came in with a melting point of 278 to 280 °C.
The compound `O=C(Nc1nc(-c2ccco2)c(C(=O)C2CCOCC2)s1)c1ccnc(Cl)c1` [Compound 404, 2-Chloro-N-[4-(2-furyl)-5-(tetrahydropyran-4-ylcarbonyl)-thiazol-2-yl]pyridine-4-carboxamide] returned a melting point of 185 to 186 °C.
The compound `O=C(Nc1nc(-c2ccco2)c(C(=O)c2ccccn2)s1)c1cccs1` [Compound 149, N-[4-(2-Furyl)-5-(pyridin-2-ylcarbonyl)thiazol-2-yl]-thiophene-2-carboxamide] gave a melting point of 197 to 199 °C.
Consider `N#Cc1cccc(C(=O)Nc2nc(-c3ccco3)c(C(=O)C3CCOCC3)s2)c1` [Compound 378, 3-Cyano-N-[4-(2-furyl)-5-(tetrahydropyran-4-ylcarbonyl)-thiazol-2-yl]benzamide], for which the melting point lay within 257 to 260 °C.
`O=C(CN1CCN(c2ccccn2)CC1)Nc1nc(-c2ccco2)c(C(=O)c2ccccn2)s1` [Compound 185, N-[4-(2-Furyl)-5-(pyridin-2-ylcarbonyl)thiazol-2-yl]-2-[4-(2-pyridyl)piperazin-1-yl]acetamide]: the melting point is 215 to 218 °C.
In turn, `Cc1cnc(C(=O)Nc2nc(-c3ccco3)c(C(=O)C3CCOCC3)s2)cn1` [Compound 415, N-[4-(2-Furyl)-5-(tetrahydropyran-4-ylcarbonyl)thiazol-2-yl]-5-methylpyrazine-2-carboxamide] registered a melting point of 130 to 131 °C.
Regarding `Cc1nc(C(=O)c2sc(NC(=O)c3ccncc3)nc2-c2ccco2)sc1C` [Compound 258, N-[5-(4,5-Dimethylthiazol-2-ylcarbonyl)-4-(2-furyl)thiazol-2-yl]pyridine-4-carboxamide], the melting point is 270 to 272 °C (dec.).
For the compound `O=C(Nc1nc(-c2ccco2)c(C(=O)C2CC2)s1)c1ccncc1` [Compound 323, N-[5-(Cyclopropylcarbonyl)-4-(2-furyl)thiazol-2-yl]pyridine-4-carboxamide], the melting point is 225 to 230 °C (dec.).
`O=C(Nc1nc(-c2ccco2)c(C(=O)c2ccccc2)s1)c1ccnnc1` [Compound 61, N-[5-Benzoyl-4-(2-furyl)thiazol-2-yl]pyridazine-4-carboxamide]: the melting point was 225 to 248 °C.
On to `CCn1ccc(C(=O)c2sc(NC(=O)c3ccncc3)nc2-c2ccco2)cc1=O` [Compound 276, N-[5-(1-Ethyl-2-oxo-1,2-dihydropyridin-4-ylcarbonyl)-4-(2-furyl)thiazol-2-yl]pyridine-4-carboxamide], for which the melting point was 277 to 281 °C.
`O=C(Nc1nc(-c2ccco2)c(C(=O)C2CCOCC2)s1)c1cccc(F)c1F` [Compound 394, 2,3-Difluoro-N-[4-(2-furyl)-5-(tetrahydropyran-4-ylcarbonyl)thiazol-2-yl]benzamide] showed a melting point of 154 to 160 °C.
`COc1ccc(-c2c[nH]c(-c3nc(-c4ccco4)c(C(=O)C4CCOCC4)s3)n2)cc1` [Compound 520, 4-(2-Furyl)-2-[4-(4-methoxyphenyl)imidazol-2-yl]thiazol-5-yl tetrahydropyran-4-yl ketone] came in with a melting point of 178 to 180 °C.
Compound `CN(C)CC(=O)Nc1nc(-c2ccco2)c(C(=O)C2CCOCC2)s1` [Compound 438, 2-(Dimethylamino)-N-[4-(2-furyl)-5-(tetrahydropyran-4-ylcarbonyl)thiazol-2-yl]acetamide] showed a melting point of 129 to 130 °C.
Consider `CN1CCN(c2ccc(C(=O)c3sc(NC(=O)c4ccncc4)nc3-c3ccco3)cn2)CC1` [Compound 232, N-{4-(2-Furyl)-5-[2-(4-methylpiperazin-1-yl)pyridin-5-ylcarbonyl]thiazol-2-yl}pyridine-4-carboxamide], for which the melting point is 195 to 205 °C.
With `O=C(CN1CCN(c2ncccn2)CC1)Nc1nc(-c2ccco2)c(C(=O)c2ccccn2)s1` [Compound 186, N-[4-(2-Furyl)-5-(pyridin-2-ylcarbonyl)thiazol-2-yl]-2-[4-(2-pyrimidinyl)piperazin-1-yl]acetamide], the melting point was 199 to 200 °C.
As to `O=C(Nc1nc(-c2ccco2)c(C(=O)c2ccoc2)s1)c1ccncc1` [Compound 253, N-[4-(Furan-2-yl)-5-(furan-3-ylcarbonyl)thiazol-2-yl]pyridine-4-carboxamide], the melting point fell in the range of 217 to 231 °C.
For `Cc1cc(C(=O)Nc2nc(-c3ccco3)c(C(=O)c3ccnc(C)c3)s2)ccn1` [Compound 240, N-[4-(2-Furyl)-5-(2-methylpyridin-4-ylcarbonyl)thiazol-2-yl]-2-methylpyridine-4-carboxamide] the value was 205 to 229 °C; for `Cc1cncc(C(=O)Nc2nc(-c3ccco3)c(C(=O)C3CCOCC3)s2)c1` [Compound 411, N-[4-(2-Furyl)-5-(tetrahydropyran-4-ylcarbonyl)thiazol-2-yl]-5-methylpyridine-3-carboxamide], 239 to 243 °C; for `CC(O)c1cc2cc(C(=O)Nc3nc(-c4ccco4)c(C(=O)c4ccccn4)s3)ccc2o1` (stereo not drawn) [Compound 154, N-[4-(2-Furyl)-5-(pyridin-2-ylcarbonyl)thiazol-2-yl]-2-(1-hydroxyethyl)-1-benzofuran-5-carboxamide], 246 to 249 °C.
Compound `O=C(Nc1nc(-c2ccco2)c(C(=O)c2ccccn2)s1)c1ccnc(Cl)c1` [Compound 122, 2-Chloro-N-[4-(2-furyl)-5-(pyridin-2-ylcarbonyl)thiazol-2-yl]pyridine-4-carboxamide] returned a melting point of 219 to 225 °C.
With `CCn1cc(C(=O)Nc2nc(-c3ccco3)c(C(=O)c3ccccc3)s2)ccc1=O` [Compound 59, N-[5-Benzoyl-4-(2-furyl)thiazol-2-yl]-1-ethyl-2-oxo-1,2-dihydropyridine-5-carboxamide], the melting point was 109 to 114 °C.
To `O=C(Nc1nc(-c2ccco2)c(C(=O)C2CCOCC2)s1)c1ccc(C(F)(F)F)nc1` [Compound 410, N-[4-(2-Furyl)-5-(tetrahydropyran-4-ylcarbonyl)thiazol-2-yl]-2-(trifluoromethyl)pyridine-5-carboxamide] belongs 217 to 222 °C; to `O=C(Nc1nc(-c2ccco2)c(C(=O)c2ccccn2)s1)c1ccnnc1` [Compound 135, N-[4-(2-Furyl)-5-(pyridin-2-ylcarbonyl)thiazol-2-yl]pyridazine-4-carboxamide], 270 to 274 °C; to `CCn1cc(C(=O)Nc2nc(-c3ccco3)c(C(=O)C3CCOCC3)s2)cn1` [Compound 425, 1-Ethyl-N-[4-(2-furyl)-5-(tetrahydropyran-4-ylcarbonyl)-thiazol-2-yl]pyrazole-4-carboxamide], 170 to 174 °C.
To `CC(C)n1nc(-c2sc(NC(=O)c3ccncc3)nc2-c2ccco2)ccc1=O` [Compound 39, N-[4-(2-Furyl)-5-(1-isopropyl-6-oxo-1,6-dihydropyridazin-3-yl)thiazol-2-yl]pyridine-4-carboxamide] belongs 190 to 194 °C; to `Cc1ncc(C(=O)Nc2nc(-c3ccco3)c(C(=O)C3CCSCC3)s2)cn1` [Compound 494, N-[4-(2-Furyl)-5-(tetrahydrothiopyran-4-ylcarbonyl)thiazol-2-yl]-2-methylpyrimidine-5-carboxamide], 238 to 240 °C.
In turn, `COC1CCN(CC(=O)Nc2nc(-c3ccco3)c(C(=O)C3CCOCC3)s2)CC1` [Compound 450, N-[4-(2-Furyl)-5-(tetrahydropyran-4-ylcarbonyl)thiazol-2-yl]-2-(4-methoxypiperidino)acetamide] returned a melting point of 109 to 111 °C.

In general, melting point refers to the temperature, or range, at which the solid turns liquid.
